# Experimental data as given in PubChem BioAssay AID1552 (Sanford-Burnham Center for Chemical Genomics, 2009).
# The source made the active and inactive calls. No rule for the calls is given here.
# Biological target: Ubiquitin-conjugating enzyme E2 N (Homo sapiens) (UniProt P61088)
# Test: NMR detection of UBE2N ligand binding – biophysical, purified protein (AID 1552)
# Settings: NMR binding to purified UBE2N
# Chain of Ubiquitin-conjugating enzyme E2 N (Homo sapiens) (P61088 whole entry, looked up): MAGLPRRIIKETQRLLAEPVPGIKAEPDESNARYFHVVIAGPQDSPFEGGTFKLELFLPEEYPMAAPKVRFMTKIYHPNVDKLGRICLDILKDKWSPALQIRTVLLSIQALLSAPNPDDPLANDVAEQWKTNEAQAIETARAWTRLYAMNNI
row,Structure (SMILES),Kd
1,CNC(=O)c1ccc([N+](=O)[O-])cc1Cl,> 4 mM (inactive)
2,O=C(NC(=S)NC1CCS(=O)(=O)C1)c1ccccc1 (configuration not stated),> 4 mM (inactive)
3,Fc1cc2nccnc2cc1N1CCSCC1,> 4 mM (inactive)
4,O=C(O)c1cnc2sc3ccccc3n2c1=O,> 4 mM (inactive)
5,CC(=O)n1nc(-c2cccnc2)nc1N,> 4 mM (inactive)
6,COC(=O)C1[C@H]2C[C@H]3c4[nH]c5ccccc5c4CCN3C[C@@H]2CC[C@@H]1O (some centres not stated),> 4 mM (inactive)
7,Cc1nc2ccccc2c(=O)n1NC(=O)Nc1ccccc1,> 4 mM (inactive)
8,CNC(=O)Cn1c(=O)n(C)c2ccccc21,> 4 mM (inactive)
9,CC(C)=CCC/C(C)=C/CC/C(C)=C/CC/C(C)=C/CC/C(C)=C/CC/C(C)=C/CC/C(C)=C/CC/C(C)=C/CC/C(C)=C/CO,> 4 mM (inactive)
10,c1ccc(SCc2nc(-c3cccnc3)no2)cc1,> 4 mM (inactive)
11,O=C(O)CN1CCNCC1,> 4 mM (inactive)
12,Nc1cccc(F)c1-c1ncon1,> 4 mM (inactive)
13,Cc1cc(N2C(=O)CCC2=O)n(-c2ccccc2)n1,> 4 mM (inactive)
14,Cc1nc(-c2ccc(NS(C)(=O)=O)cc2)cs1,> 4 mM (inactive)
15,O=c1c(Cl)c(NCCO)ncn1-c1ccccc1,> 4 mM (inactive)
16,CC(=O)Nc1cccc(-c2n[nH]c(=S)n2C)c1,> 4 mM (inactive)
17,Cc1cc(C)n(-c2nc(C)nc(N)n2)n1,> 4 mM (inactive)
18,COC(=O)[C@H]1[C@H]2C[C@H]3c4[nH]c5ccccc5c4CCN3C[C@H]2CC[C@@H]1O,> 4 mM (inactive)
19,O=c1c(-c2ccccc2)coc2cc(O)cc(O)c12,> 4 mM (inactive)
20,CCC(C)OC1CCS(=O)(=O)C1 (configuration not stated),> 4 mM (inactive)
21,NC(=O)COc1ccccc1O,> 4 mM (inactive)
22,COc1c(O)cc2oc3cc(O)c(CC=C(C)C)c(O)c3c(=O)c2c1CC=C(C)C,> 4 mM (inactive)
23,Cc1nc2ccccc2c(=O)n1N1C(=O)CCCC1=O,> 4 mM (inactive)
24,O=c1/c(=C/c2cccs2)sc2ncnn12,> 4 mM (inactive)

row,Structure (SMILES),Kd
1,CN1CCc2c(sc(N)c2C#N)C1,> 4 mM (inactive)
2,CC(=O)N1C(=S)NC(=O)/C1=C\c1cccnc1,> 4 mM (inactive)
3,O=C(CSc1ncnc2ccccc12)NCCCO,> 4 mM (inactive)
4,C#CCCCCCCCCCCCc1ccco1,> 4 mM (inactive)
5,C=C1C[C@]23C[C@@]1(O)CC[C@H]2[C@@]12C=C[C@H](O)C(C)(C(=O)O1)[C@H]2[C@@H]3C(=O)O,> 4 mM (inactive)
6,O=C(Nn1cnnc1)c1cccc(C(F)(F)F)c1,> 4 mM (inactive)
7,COc1ncccc1N,> 4 mM (inactive)
8,CC(=O)N1CCN(c2ccc(N)cc2)CC1,> 4 mM (inactive)
9,COc1cc(OC)c2c(=O)c(-c3ccc4c(c3)OCO4)coc2c1,> 4 mM (inactive)
10,O=C1CSC(=O)N1CN1CCOCC1,> 4 mM (inactive)
11,Clc1ccccc1OCc1nc(-c2ccncc2)no1,> 4 mM (inactive)
12,COC1=CC(C)[C@@H]2C[C@H]3OC(=O)C[C@H]4C(C)=C(OC)C(=O)C([C@@]34C)[C@@]2(C)C1=O (some centres not stated),> 4 mM (inactive)
13,O=c1[nH]c(O)c(C=NCc2cccs2)c(=O)[nH]1,> 4 mM (inactive)
14,Cc1sc2nc[nH]c(=S)c2c1C,> 4 mM (inactive)
15,CCOC(=O)c1cnc2cc(C)nn2c1C,> 4 mM (inactive)
16,CSc1nnc(-c2ccccc2NC(C)=O)o1,> 4 mM (inactive)
17,CC1=CC(=O)CC(C)(C)C1(O)/C=C/C(C)=C\C(=O)O (configuration not stated),> 4 mM (inactive)
18,Nc1ccc(CCC(=O)O)cc1,> 4 mM (inactive)
19,NCC(N)C(=O)c1ccccc1 (configuration not stated),> 4 mM (inactive)
20,COC(=O)CCC(C)C1CCC2C3CCC4C[C@H](O)CC[C@]4(C)C3C[C@H](O)[C@]12C (some centres not stated),> 4 mM (inactive)
21,N#Cc1cnc(N2CCCCC2)nc1N,> 4 mM (inactive)
22,NS(=O)(=O)c1ccc(NC(=O)C(F)(F)F)cc1,> 4 mM (inactive)
23,Cc1ccccc1NC(=O)/C=C\C(N)=O,> 4 mM (inactive)
24,CSc1ncc(CO)n1Cc1ccccc1,> 4 mM (inactive)

row,Structure (SMILES),Kd
1,COc1ccc(-c2cc(=O)c3c(O)cc(O)c(-c4cc(-c5cc(=O)c6c(O)cc(O)cc6o5)ccc4OC)c3o2)cc1,> 4 mM (inactive)
2,O=C(O)C1CC(=O)N(CCc2ccc(Cl)cc2)C1 (configuration not stated),> 4 mM (inactive)
3,OCC1CCCCCN1 (configuration not stated),> 4 mM (inactive)
4,O=C1CC(=O)N(c2ccccc2)c2ccccc21,> 4 mM (inactive)
5,COc1ccc(C(=O)O)cc1OC,> 4 mM (inactive)
6,CCOC(=O)C(C)c1n[nH]c(=O)c2ccccc12 (configuration not stated),> 4 mM (inactive)
7,OCC1COc2ccccc2C1 (configuration not stated),> 4 mM (inactive)
8,CC1(c2ccncc2)NC(=O)NC1=O (configuration not stated),> 4 mM (inactive)
9,CC1CCCN(C/C(O)=C(\C#N)c2nc3ccccc3[nH]2)C1 (configuration not stated),> 4 mM (inactive)
10,CC(=O)Nc1ccc(S(=O)(=O)NC2=NCCS2)cc1,> 4 mM (inactive)
11,COc1cc2c(cc1OC)[C@@H]1C(=O)c3ccc4c(c3O[C@@H]1CO2)CC(C(C)C)O4 (some centres not stated),> 4 mM (inactive)
12,CC1(C)Cc2cccc(C(=O)O)c2O1,> 4 mM (inactive)
13,Cc1n[nH]c(=O)c2ncn(C)c12,> 4 mM (inactive)
14,O=C1C=C(Nc2ccccc2O)c2ccccc2C1=O,> 4 mM (inactive)
15,O=C(Nc1ccc2ccccc2c1)c1cnccn1,> 4 mM (inactive)
16,C/C1=C/CC(C)(C)/C=C/C/C(C)=C/CC1,> 4 mM (inactive)
17,O=C(CS(=O)(=O)c1ccccc1)Nc1nccs1,> 4 mM (inactive)
18,O=C(Nc1nccs1)c1ccc(=O)[nH]n1,> 4 mM (inactive)
19,CSc1nnnn1-c1cccc(O)c1,> 4 mM (inactive)
20,COc1cc(S(=O)(=O)Nc2cccnc2)ccc1F,> 4 mM (inactive)
21,CNC(=S)NCCN1CCOCC1,> 4 mM (inactive)
22,OC1CC2CCC1C2 (configuration not stated),> 4 mM (inactive)
23,NC(=O)CSc1nnnn1-c1ccccc1,> 4 mM (inactive)
24,O=C1C[C@@H](c2ccccc2)Oc2cc(O)cc(O)c21,> 4 mM (inactive)

row,Structure (SMILES),Kd
1,Cc1nc(NC(=O)c2cccnc2)ccc1Br,> 4 mM (inactive)
2,Cc1cc(C)c(-c2cc(C(F)(F)F)no2)c(=O)[nH]1,> 4 mM (inactive)
3,Cc1cc(=O)n2[nH]c(N)nc2n1,> 4 mM (inactive)
4,O=C1CC(=O)N(c2cccc(Cl)c2)N1,> 4 mM (inactive)
5,COc1ccc(NC(=O)c2ccc[n+]([O-])c2)cc1,> 4 mM (inactive)
6,Nc1ccc2nsnc2c1,> 4 mM (inactive)
7,COc1cccc(/C=C/C(=O)O)c1C(C)C,> 4 mM (inactive)
8,Nc1nc(=S)n2c(n1)oc1ccccc12,> 4 mM (inactive)
9,c1ccc2[nH]c(SCc3cscn3)nc2c1,> 4 mM (inactive)
10,NC(=O)c1ccc(Cl)c(N2C(=O)CCC2=O)c1,> 4 mM (inactive)
11,CC(NC(=O)c1cccnc1)c1ccc2c(c1)OCO2 (configuration not stated),> 4 mM (inactive)
12,CN1C2C[C@H](OC(=O)[C@H](CO)c3ccccc3)C[C@H]1[C@@H](O)C2,> 4 mM (inactive)
13,CC(=O)Nc1cc(O)cc(O)c1,> 4 mM (inactive)
14,CCOC(=O)CN1C(=O)c2ccccc2C1=O,> 4 mM (inactive)
15,CC1(C)CC2C1CCC1(C)OC1CCC2(C)O (configuration not stated),> 4 mM (inactive)
16,Cc1nc2ccccc2c(=O)n1CCCn1ccnc1,> 4 mM (inactive)
17,NS(=O)(=O)c1ccc(N=C2NC(=O)CS2)cc1,> 4 mM (inactive)
18,NC(=O)C1CCN(C(=O)c2ccccc2F)CC1,> 4 mM (inactive)
19,Cc1onc(-c2c(Cl)cccc2Cl)c1C(N)=O,> 4 mM (inactive)
20,Cc1ccc(N2C(=O)CC(Sc3ncn[nH]3)C2=O)cc1 (configuration not stated),> 4 mM (inactive)
21,O=S(=O)(Cc1ccc(Cl)cc1)N1CCCC1,> 4 mM (inactive)
22,CN=C1SC(CC(=O)Nc2ccc(O)cc2)C(=O)N1C (configuration not stated),> 4 mM (inactive)
23,O=C(O)CC1Sc2ccccc2NC1=O (configuration not stated),> 4 mM (inactive)
24,Cn1nc(-c2ccccc2)cc1N,> 4 mM (inactive)

row,Structure (SMILES),Kd
1,CC1(C)Cc2nc3n[nH]c(N)c3cc2CO1,> 4 mM (inactive)
2,C[C@@H]1O[C@@H](O[C@H]2CC[C@]3(C=O)C4CC[C@]5(C)[C@@H](C6=CC(=O)OC6)CC[C@]5(O)C4CC[C@]3(O)C2)[C@H](O)[C@H](O)[C@H]1O (some centres not stated),> 4 mM (inactive)
3,CNC(=O)Oc1ccc2c(c1)[C@]1(C)CCN(C)[C@@H]1N2C,> 4 mM (inactive)
4,CC(=O)O[C@@H]1CC[C@@]2(C)C(CC[C@]3(C)C2CC=C2C4CC(C)(C)CC[C@]4(C(=O)O)CC[C@]23C)C1(C)C (some centres not stated),> 4 mM (inactive)
5,O=C1Nc2ccccc2C1(O)Cc1ccncc1 (configuration not stated),> 4 mM (inactive)
6,Cn1c(SCC(N)=O)nnc1-c1cccnc1,> 4 mM (inactive)
7,Oc1ccccc1C(=S)N1CCCCCC1,> 4 mM (inactive)
8,OC1CCC(C(F)(F)F)CC1 (configuration not stated),> 4 mM (inactive)
9,NC(Cc1c[nH]c2ccccc12)C(=O)O (configuration not stated),> 4 mM (inactive)
10,O=C(CN1C(=O)c2cccc3cccc(c23)C1=O)NO,> 4 mM (inactive)
11,Nc1ccnc(C(=O)O)c1,> 4 mM (inactive)
12,O=C(/C=C1\SC(=O)NC1=O)NCc1ccccc1,> 4 mM (inactive)
13,COc1ccc(-c2c(O)c3c(OC)c4c(cc3oc2=O)OC(C)(C)CC4)cc1,> 4 mM (inactive)
14,OCc1ccc(-n2ccnc2)cc1,> 4 mM (inactive)
15,c1cnc(N2CCNCC2)nc1,> 4 mM (inactive)
16,COc1ccc(-c2coc3cc(OC(C)=O)cc(OC(C)=O)c3c2=O)cc1,> 4 mM (inactive)
17,COc1ccccc1C(=O)Nc1ccccn1,> 4 mM (inactive)
18,Cc1nnc(NCCCO)[nH]c1=O,> 4 mM (inactive)
19,O=C(O)CNCC(O)Cn1c2ccccc2c2ccccc21 (configuration not stated),> 4 mM (inactive)
20,Nc1nnc(SCc2ccc(F)cc2)s1,> 4 mM (inactive)
21,CC1(C)Cc2nc(N3CCOCC3)c(C#N)cc2CO1,> 4 mM (inactive)
